Results on two compounds are retold here after patent US11795181B2, “Basic copper gluconate” (JOST CHEMICAL CO., priority 2020, dated 2023).

A short description of one series: Aqueous solubility. In kind it is physicochemical. The conditions noted are these: in water. The text has this:
However, at higher concentrations (i.e., 30% and above), solutions are prone to secondary redox reactions if left to sit for prolonged periods in the open air. Copper (II) slowly oxidizes gluconic acid producing a red precipitate of cuprous oxide (Cu2O). […] This is less evident in the 25% solution of basic copper gluconate than in the remaining, higher percentage, solutions.

The conditions of series [1]: background statement; cited from earlier work.

Take `O=C([O][Cu][OH])C(O)C(O)C(O)C(O)CO` (centres unmarked) [Basic copper gluconate]: the water solubility result in the series “Aqueous solubility” is “over 50 g/100 g water”.

Turning to `O=C([O-])[C@H](O)[C@@H](O)[C@H](O)[C@H](O)CO.O=C([O-])[C@H](O)[C@@H](O)[C@H](O)[C@H](O)CO.[Cu+2]` [copper gluconate, Copper gluconate], in series [1], the “aqueous solubility (in words)” value is reported as “excellent aqueous solubility”.
